In general, GI50 refers to the concentration that inhibits growth by half.

One assay has as its target T1, Top1 (Homo sapiens, UniProt P11387).
T1 sequence (P11387 1-765): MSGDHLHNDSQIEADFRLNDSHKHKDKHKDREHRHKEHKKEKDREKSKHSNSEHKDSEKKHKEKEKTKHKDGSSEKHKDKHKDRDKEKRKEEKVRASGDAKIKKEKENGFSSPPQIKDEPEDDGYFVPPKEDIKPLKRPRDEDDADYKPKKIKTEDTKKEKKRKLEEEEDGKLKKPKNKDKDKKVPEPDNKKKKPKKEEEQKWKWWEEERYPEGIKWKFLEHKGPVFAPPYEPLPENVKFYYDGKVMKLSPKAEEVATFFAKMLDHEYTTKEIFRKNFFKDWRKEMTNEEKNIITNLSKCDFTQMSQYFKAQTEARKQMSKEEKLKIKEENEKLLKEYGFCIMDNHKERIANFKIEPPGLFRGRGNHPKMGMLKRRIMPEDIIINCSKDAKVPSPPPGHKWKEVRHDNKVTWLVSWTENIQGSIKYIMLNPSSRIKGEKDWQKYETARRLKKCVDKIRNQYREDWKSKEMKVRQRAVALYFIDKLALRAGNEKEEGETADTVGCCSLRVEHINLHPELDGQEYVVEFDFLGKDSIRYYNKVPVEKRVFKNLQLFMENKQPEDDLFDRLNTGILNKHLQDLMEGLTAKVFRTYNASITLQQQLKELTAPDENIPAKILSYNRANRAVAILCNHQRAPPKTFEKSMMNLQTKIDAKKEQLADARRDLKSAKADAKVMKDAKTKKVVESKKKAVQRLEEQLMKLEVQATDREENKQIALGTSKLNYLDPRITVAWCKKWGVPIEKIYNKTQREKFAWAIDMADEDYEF
The assay can be described thus: Top1-mediated DNA cleavage assay. It is filed as biochemical. Details: Top1 inhibitory activity level / Top1 inhibitory activity score: key to the marks not given beside the values.

The target in another assay is Tdp1 (Homo sapiens, UniProt Q9NUW8). The experiment in a line: Recombinant Tdp1 assay. The format is biochemical.
Tdp1, sequence (Q9NUW8 whole entry): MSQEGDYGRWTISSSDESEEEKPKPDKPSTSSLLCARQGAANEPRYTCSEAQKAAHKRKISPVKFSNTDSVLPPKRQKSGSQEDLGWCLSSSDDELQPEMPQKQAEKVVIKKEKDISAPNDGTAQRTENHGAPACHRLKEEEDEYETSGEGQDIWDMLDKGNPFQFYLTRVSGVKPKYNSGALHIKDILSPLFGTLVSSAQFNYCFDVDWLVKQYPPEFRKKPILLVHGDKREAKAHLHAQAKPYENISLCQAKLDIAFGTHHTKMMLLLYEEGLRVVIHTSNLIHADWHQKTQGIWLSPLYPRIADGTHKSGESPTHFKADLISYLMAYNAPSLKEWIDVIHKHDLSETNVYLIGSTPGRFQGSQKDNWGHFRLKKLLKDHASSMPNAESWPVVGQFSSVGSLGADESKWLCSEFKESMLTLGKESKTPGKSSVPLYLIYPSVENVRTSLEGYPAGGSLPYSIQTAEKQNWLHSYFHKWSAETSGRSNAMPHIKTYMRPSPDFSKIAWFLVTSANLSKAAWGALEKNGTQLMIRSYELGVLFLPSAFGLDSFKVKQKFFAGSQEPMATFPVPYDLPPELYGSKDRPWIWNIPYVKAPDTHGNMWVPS
The next assay addresses T2, recombinant human TDP2 (Homo sapiens, UniProt O95551).
T2 sequence (O95551 1-362): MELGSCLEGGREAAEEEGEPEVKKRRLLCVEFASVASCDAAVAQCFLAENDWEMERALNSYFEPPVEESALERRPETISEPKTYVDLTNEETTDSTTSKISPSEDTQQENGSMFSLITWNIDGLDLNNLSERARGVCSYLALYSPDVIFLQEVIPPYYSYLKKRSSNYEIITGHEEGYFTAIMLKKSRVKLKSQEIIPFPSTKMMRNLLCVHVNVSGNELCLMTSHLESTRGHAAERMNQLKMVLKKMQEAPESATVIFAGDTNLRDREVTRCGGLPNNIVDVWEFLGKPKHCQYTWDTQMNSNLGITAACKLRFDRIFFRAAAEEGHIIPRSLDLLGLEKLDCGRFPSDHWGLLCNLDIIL
The assay can be described thus: Recombinant Tdp2 assay. The format is biochemical.

In another assay the test system is HCT-116. The experiment in a line: NCI-60 cytotoxicity, HCT-116. It is filed as cell-based. To be noted: Homo sapiens, single determinations, Table 2, read-out: Cytotoxicity (GI50) Colon HCT-116.
A further assay concerns DU-145. The experiment in a line: NCI-60 cytotoxicity, DU-145. The settings on record: Homo sapiens, single determinations, Table 2, read-out: Cytotoxicity (GI50) Prostate DU-145. The format is cell-based.
For another assay, the system named is MCF-7. The assay can be described thus: NCI-60 cytotoxicity, MCF-7. To be noted: Homo sapiens, MCF7, read-out: Cytotoxicity (GI50) Breast MCF-7.
A further assay has as its system HOP-62. The experiment in a line: NCI-60 cytotoxicity, HOP-62. The settings on record: Homo sapiens, HOP-62, read-out: Cytotoxicity (GI50) Lung HOP-62.
The subject of a further assay is SF-539. The assay can be described thus: NCI-60 cytotoxicity, SF-539. The settings on record: Homo sapiens, SF-539, read-out: Cytotoxicity (GI50) CNS SF-539.
In another assay the test system is UACC-62. The experiment in a line: NCI-60 cytotoxicity, UACC-62. The settings on record: Homo sapiens, UACC-62, read-out: Cytotoxicity (GI50) Melanoma UACC-62.
The next assay relates to OVCAR-3. The assay can be described thus: NCI-60 cytotoxicity, OVCAR-3. To be noted: Homo sapiens, OVCAR-3, read-out: Cytotoxicity (GI50) Ovarian Ovcar-3.
For assay [1], the system named is NCI-60 panel of human cancer cell lines. The experiment in a line: NCI-60 screen, mean graph midpoint over all cell lines. To be noted: Homo sapiens, read-out: Cytotoxicity (GI50) MGM.
The next assay deals with SN12C. The experiment in a line: NCI-60 cytotoxicity, SN12C. The settings on record: Homo sapiens, read-out: Cytotoxicity (GI50) Renal SN12C.
[2] abbreviates: DNA cleavage relative to 1 μM MJ-III-65 (19) and 1 μM camptothecin (18), Table 2.
The mark [3] stands for this setting: determined in duplicate, Table 2, read-out: Enzyme Inhibitory Activity Tdp1 (IC50).
[4] abbreviates: determined in duplicate, Table 2, read-out: Enzyme Inhibitory Activity Tdp2 (IC50).
The mark [5] stands for this setting: read-out: Enzyme Inhibitory Activity Tdp1 (IC50).

Where two headings read alike, the source gives them in different places. Bounds are passed on as bounds.

Experimental for recombinant human TDP2: TDP2 reactions were carried out as described previously with the following modifications. […] Reactions were terminated and treated similarly to whole-cell extract and recombinant Tdp1 reactions (see previous paragraph).

Take `COc1cnc2c(c1)C(=O)c1c-2n(CCCN2CCOCC2)c(=O)c2cc(Cl)ccc12` [Compound 16a, 3-Chloro-9-methoxy-6-(3-morpholinopropyl)-5H-pyrido[3′,2′:4,5]cyclopenta[1,2-c]isoquinoline-5,11(6H)-dione]: the “Enzyme Inhibitory Activity Top1” value at Top1 (setting [2]) is reported as “+++”. Besides, the IC50 at Tdp1 (setting [3]) and at recombinant human TDP2 (setting [4]) was more than 111000 nM throughout. The concentration for 50% growth inhibition (GI50) in the assay with HCT-116 is 160 nM; in the assay on DU-145 it was 410 nM; in the assay on MCF-7 it was 90 nM; in the assay with HOP-62 it was 270 nM; with SF-539 it was 230 nM; in the assay with UACC-62, 180 nM. Further, the GI50 amounted to 780 nM with OVCAR-3 and 100 nM in [1].
For the molecule `COc1cnc2c(c1)C(=O)c1c-2n(CCCn2ccnc2)c(=O)c2cc(Cl)ccc12` [Compound 16b, 6-(3-(1H-Imidazol-1-yl)propyl)-3-chloro-9-methoxy-5H-pyrido[3′,2′:4,5]cyclopenta[1,2-c]isoquinoline-5,11(6H)-dione], on Top1 (setting [2]), the “Enzyme Inhibitory Activity Top1” value was “+++”. In addition, the IC50 at Tdp1 (setting [3]) and on recombinant human TDP2 (setting [4]) was more than 111000 nM throughout. Moreover, the GI50 was 14 nM with HCT-116; 43 nM in the assay on DU-145; less than 10 nM in the assay on MCF-7; 20 nM in the assay on HOP-62; 38 nM with SF-539; 28 nM with UACC-62. The results for the GI50 (in the assay with OVCAR-3; in assay [1]) were 120 nM and 63 nM, respectively.
Turning to `COc1cnc2c(c1)C(=O)c1c-2n(CCCN2CCC(O)CC2)c(=O)c2cc(Cl)ccc12` [Compound 16d, 3-Chloro-6-(3-(4-hydroxypiperidin-1-yl)propyl)-9-methoxy-5H-pyrido[3′,2′:4,5]cyclopenta-[1,2-c]isoquinoline-5,11(6H)-dione], the “Enzyme Inhibitory Activity Top1” value at Top1 (setting [2]) is recorded as “++++”. In addition, the “Top1 inhibitory activity score” value at Top1 (running text b88 on series 2, tested at 0.1, 1, 10 and 100 μM) is reported as “++++”. The IC50 at Tdp1 (setting [3]) was 14000 ± 1000 nM; on recombinant human TDP2 (setting [4]), more than 111000 nM. Also, the GI50 in the assay on HCT-116 turned out to be 98 nM; in the assay with DU-145 it was 270 nM; with MCF-7, 42 nM; in the assay on HOP-62 it was 94 nM; in the assay with SF-539, 430 nM; with UACC-62, 190 nM. The concentration for 50% growth inhibition (GI50) with OVCAR-3 is 1420 nM; in assay [1], 660 nM.
As to `COc1cnc2c(c1)C(=O)c1c-2n(CCCN2CCNCC2)c(=O)c2cc(Cl)ccc12` [Compound 16e, 3-Chloro-9-methoxy-6-(3-(piperazin-1-yl)propyl)-5H-pyrido[3′,2′:4,5]cyclopenta[1,2-c]isoquinoline-5,11(6H)-dione], on Top1 (setting [2]), the “Enzyme Inhibitory Activity Top1” value is “+”. Moreover, the IC50 is 20200 ± 3700 nM at Tdp1 (setting [5]) and more than 111000 nM at recombinant human TDP2 (setting [4]). For the same molecule, the concentration for 50% growth inhibition (GI50) in the assay with HCT-116 turned out to be 298 nM; with DU-145 it was 242 nM; in the assay on SN12C, 489 nM; in the assay with MCF-7, 89 nM; with HOP-62 it was 200 nM; in the assay with SF-539, 1330 nM. Also, the GI50 in the assay on UACC-62 was 1430 nM; in the assay on OVCAR-3, 1430 nM; in assay [1] it was 580 nM.
For `COc1cnc2c(c1)C(=O)c1c-2n(CCCNC(C)C)c(=O)c2cc(Cl)ccc12` [Compound 16f, 3-Chloro-9-methoxy-6-(3-(isopropylamino)propyl)-5H-pyrido[3′,2′:4,5]cyclopenta[1,2-c]isoquinoline-5,11(6H)-dione], on Top1 (setting [2]), the “Enzyme Inhibitory Activity Top1” value is on record as “++”. The IC50 at Tdp1 (setting [3]) is 33300 ± 4200 nM; at recombinant human TDP2 (setting [4]), more than 111000 nM. The GI50 in the assay on HCT-116 worked out at 138 nM; with DU-145 it was 173 nM; in the assay with SN12C, 417 nM; in the assay with MCF-7, 37 nM; in the assay with HOP-62, 70 nM; in the assay on SF-539 it was 554 nM. Besides, the GI50 with UACC-62 was determined as 303 nM; with OVCAR-3, 1390 nM; in assay [1] it was 380 nM.
Regarding `CCNCCCn1c2c(c3ccc(Cl)cc3c1=O)C(=O)c1cc(OC)cnc1-2` [Compound 16h, 3-Chloro-9-methoxy-6-(3-(ethylamino)propyl)-5H-pyrido[3′,2′:4,5]cyclopenta[1,2-c]isoquinoline-5,11(6H)-dione], at Tdp1 (setting [3]), the IC50 came out at 22200 ± 6400 nM. The GI50 with HCT-116 is 203 nM; with DU-145 it was 208 nM; with SN12C, 675 nM; with MCF-7, less than 10 nM; in the assay on HOP-62 it was 122 nM; with SF-539, 506 nM. The 50% growth inhibitory concentration (GI50) with UACC-62 amounted to 532 nM; with OVCAR-3, 2130 nM; in assay [1], 426 nM.
Consider `COc1cnc2c(c1)C(=O)c1c-2n(CCCN2CCCC2)c(=O)c2cc(Cl)ccc12` [Compound 16i, 3-Chloro-9-methoxy-6-(3-(pyrrolidin-1-yl)propyl)-5H-pyrido[3′,2′:4,5]cyclopenta[1,2-c]isoquinoline-5,11(6H)-dione], for which the IC50 on Tdp1 (setting [5]) is 27500 ± 600 nM.
As to `COc1cnc2c(c1)C(=O)c1c-2n(CCCN2CCN(C)CC2)c(=O)c2cc(Cl)ccc12` [Compound 16j, 3-Chloro-9-methoxy-6-(3-(4-methylpiperazin-1-yl)propyl)-5H-pyrido[3′,2′:4,5]cyclopenta[1,2-c]isoquinoline-5,11(6H)-dione], on Top1 (setting [2]), the “Enzyme Inhibitory Activity Top1” value was “+”. Also, at Tdp1 (setting [3]), the IC50 was more than 111000 nM. Also, the GI50 in the assay with HCT-116 is 980 nM; with DU-145 it was 3180 nM; with SN12C, 10200 nM; in the assay on MCF-7 it was 487 nM; in the assay on HOP-62 it was 950 nM; in the assay on SF-539 it was 2150 nM. Also, the concentration for 50% growth inhibition (GI50) in the assay with UACC-62 is 1810 nM; in the assay on OVCAR-3, 15100 nM; in [1] it was 2950 nM.
Take `CC[C@@]1(O)C(=O)OCc2c1cc1n(c2=O)Cc2cc3ccccc3nc2-1` [Compound 18, camptothecin, reference compound]: the “Enzyme Inhibitory Activity Top1” value on Top1 (DNA cleavage relative to 1 μM MJ-III-65 (19) and 1 μM camptothecin (18), Table 1) is recorded as “++++”. Moreover, the IC50 on Tdp1 and on recombinant human TDP2 was more than 111000 nM in each case. In addition, the concentration for 50% growth inhibition (GI50) was 20 nM in the assay on SN12C; 13 nM with MCF-7; less than 10 nM in the assay with HOP-62; less than 10 nM in the assay with SF-539; less than 10 nM with UACC-62; 40 nM in [1].
Take `COc1cc2c3c(n(CCCNCCO)c(=O)c2cc1OC)-c1cc2c(cc1C3=O)OCO2` [Compound 19, reference compound]: the “Enzyme Inhibitory Activity Top1” value at Top1 is recorded as “++++”. The IC50 at Tdp1 (semiquantitative scale, in duplicate, Table 1, read-out: Enzyme Inhibitory Activity Tdp1) is 12000 to 111000 nM; on recombinant human TDP2 (semiquantitative scale, in duplicate, Table 1, read-out: Enzyme Inhibitory Activity Tdp2), 1000 to 12000 nM. The 50% growth inhibitory concentration (GI50) with SN12C is less than 10 nM; with MCF-7, less than 10 nM; with HOP-62 it was 20 nM; with SF-539, 40 nM; in the assay with UACC-62 it was 30 nM; in the assay on OVCAR-3, 500 nM. The 50% growth inhibitory concentration (GI50) in assay [1] stood at 210 nM.

For the origin of these results see patent US10875860B2, “Azaindenoisoquinoline compounds and uses thereof” (Purdue Research Foundation, priority 2016, dated 2020).
